Literature values, collected in patent US12161629B2, “Methods and compositions for treatment of glaucoma and related conditions” (Opus Genetics, Inc., priority 2018, dated 2024).
Where a name gives a salt, the structure may show the parent alone. Read-outs that look alike come from different tables or passages of the source.

Legend:
[1] = tested on: alpha-1 adrenergic receptor

Row | Compound | effect on intraocular pressure (eyes of patients; in patients, Hara et al., Cardiovascular Drug Reviews (2005)) | inhibitory activity, alpha-1 versus alpha-2 adrenergic receptor [1] | effect on intraocular pressure (eyes of patients; in normotensive eyes or in eyes with elevated intraocular pressure)
1 | CCCC(=O)N1CCCN(c2nc(N)c3cc(OC)c(OC)cc3n2)CC1 [bunazosin] | decreased intraocular pressure in patients | greater inhibitory activity towards (i) the alpha-1 adrenergic receptor compared to the (ii) alpha-2 adrenergic receptor | 
2 | Cc1ccccc1N1CCN(CCc2nnc3n2CCCC3)CC1 [dapiprazole hydrochloride] |  |  | not significantly alter intraocular pressure
